Experimental findings from ChEMBL document CHEMBL2363022, “Malaria Box Schistosomiasis Screening Data” (2013) are described below.

Structures are written as SMILES.

Common to all, as to type: functional
What all share (design): scale not given here

The test system of assay [1] is Schistosoma mansoni.
The test system of assay [2] is Schistosoma mansoni. This is another data set of the same source.
The subject of assay [3] is Schistosoma mansoni. This is another data set of the same source.

`O=C(O)C(=O)O.Oc1ccccc1CN1CCN(C(c2ccccc2)c2ccccc2)CC1`: the Toxicity in the assay with Schistosoma mansoni [1], with Schistosoma mansoni [2] and in the assay on Schistosoma mansoni [3] was 0 in each case.
Consider `CCOC(=O)c1cnc2ccc(OC)cc2c1NCc1ccccc1`, for which the Toxicity amounted to 1 with Schistosoma mansoni [1], 0 in the assay on Schistosoma mansoni [2] and 1 with Schistosoma mansoni [3].
For the compound `Clc1ccc2[nH]c3c(NCCCN4CCOCC4)ncnc3c2c1`, the Toxicity with Schistosoma mansoni [1], with Schistosoma mansoni [2] and in the assay with Schistosoma mansoni [3] was 0 in each case.
Turning to `CCCc1c(CC)c(=N)c2ccccc2n1C`, the Toxicity stood at 1 in the assay with Schistosoma mansoni [1], 0 with Schistosoma mansoni [2] and 0 with Schistosoma mansoni [3].
For `COc1ccc2nc(C)cc(Nc3cccc(O)c3)c2c1.Cl`, the Toxicity with Schistosoma mansoni [1] worked out at 2; with Schistosoma mansoni [2], 0; with Schistosoma mansoni [3], 0.
In the case of `Cn1c(=O)c2cc(C(=O)NCCCN3CCCCCC3)sc2c2ccccc21`, the Toxicity with Schistosoma mansoni [1], in the assay on Schistosoma mansoni [2] and in the assay on Schistosoma mansoni [3] was 0 throughout.
Turning to `COc1ccc(C2C(C(=O)Nc3cccc(OC)c3)c3ccccc3C(=O)N2C2CCCCC2)cc1` (configuration not stated), the Toxicity in the assay with Schistosoma mansoni [1], with Schistosoma mansoni [2] and with Schistosoma mansoni [3] was 0 throughout.
For the compound `Cc1nc2ccccc2c(O)c1CC=C(Cl)Cl`, the Toxicity with Schistosoma mansoni [1], with Schistosoma mansoni [2] and in the assay on Schistosoma mansoni [3] was 0 each time.
Consider `COCCN(C(=O)Cc1cccs1)C(C(=O)NCc1ccc(OC)cc1)c1ccc(C(C)C)cc1` (configuration not stated), for which the Toxicity in the assay with Schistosoma mansoni [1], in the assay with Schistosoma mansoni [2] and in the assay with Schistosoma mansoni [3] was 0 throughout.
`Cc1ccc(OCCCCCCNCCO)c(C)c1`: the Toxicity in the assay on Schistosoma mansoni [1], with Schistosoma mansoni [2] and in the assay on Schistosoma mansoni [3] was 0 in each case.
For the compound `COc1ccc(OC)c(C2C3=C(CC(C)(C)CC3=O)N(c3ccc(Cl)c(Cl)c3)C3=C2C(=O)CC(C)(C)C3)c1`, the Toxicity in the assay with Schistosoma mansoni [1] is 1; in the assay on Schistosoma mansoni [2], 0; in the assay on Schistosoma mansoni [3], 1.
With `Cc1ccc(F)cc1NC(=O)c1cc(Cl)ccc1Nc1ccccc1`, the Toxicity with Schistosoma mansoni [1], in the assay with Schistosoma mansoni [2] and in the assay with Schistosoma mansoni [3] was 0 each time.
For `O=C(Nc1ccc(Cl)cc1)N1CCN(c2ccc3nncn3n2)CC1`, the Toxicity in the assay with Schistosoma mansoni [1], in the assay with Schistosoma mansoni [2] and in the assay on Schistosoma mansoni [3] was 0 throughout.
Regarding `Cc1cc(NC(=O)c2ccc(-c3ccccc3)cc2)no1`, the Toxicity in the assay with Schistosoma mansoni [1], in the assay on Schistosoma mansoni [2] and with Schistosoma mansoni [3] was 0 throughout.
For `CC(C)(C)C(=O)Nc1ccc(C(=O)Nc2cccc(-c3nc4ccccc4[nH]3)c2)cc1`, the Toxicity with Schistosoma mansoni [1] is recorded as 0; with Schistosoma mansoni [2], 0; in the assay with Schistosoma mansoni [3], 2.
Turning to `Cc1ccc(N2C(=O)C3C(C2=O)C2(c4ccccc4)C(=O)C3(c3ccccc3)C(c3ccccc3)=C2c2ccccc2)cc1` (configuration not stated), the Toxicity with Schistosoma mansoni [1], in the assay on Schistosoma mansoni [2] and in the assay on Schistosoma mansoni [3] was 1 each time.
For `CCc1ccc(CNCC(O)c2ccccc2)cc1.Cl` (configuration not stated), the figures for the Toxicity in the assay with Schistosoma mansoni [1], with Schistosoma mansoni [2] and in the assay on Schistosoma mansoni [3] were 1, 0 and 1, respectively.
Take `Cc1ccc(C(=O)c2oc3ccc4c(C)cc(=O)oc4c3c2C)cc1`: the Toxicity with Schistosoma mansoni [1], in the assay on Schistosoma mansoni [2] and in the assay with Schistosoma mansoni [3] was 0 in each case.
For `CCOc1c(Cl)cc(CNCC(O)c2ccccc2)cc1OC` (configuration not stated), the Toxicity with Schistosoma mansoni [1], in the assay on Schistosoma mansoni [2] and with Schistosoma mansoni [3] was 0 in each case.
Take `Nc1nc(Nc2cccc(F)c2)nc2ccccc12`: the Toxicity in the assay on Schistosoma mansoni [1], with Schistosoma mansoni [2] and in the assay on Schistosoma mansoni [3] was 0 in each case.
As for `COc1ccc2nc(N)nc(C)c2c1`, the Toxicity with Schistosoma mansoni [1] amounted to 0; with Schistosoma mansoni [2] it was 0; in the assay with Schistosoma mansoni [3], 4.
In the case of `CCOC(=O)c1cnc2ccc(Cl)cc2c1NCCCN(C)C`, the Toxicity in the assay with Schistosoma mansoni [1], with Schistosoma mansoni [2] and with Schistosoma mansoni [3] was 1 each time.
On to `CCOC(=O)C1CCN(C(=O)CN2C(=O)c3ccccc3C2c2c[nH]c3ccccc23)CC1` (configuration not stated), for which the Toxicity in the assay with Schistosoma mansoni [1], in the assay on Schistosoma mansoni [2] and in the assay on Schistosoma mansoni [3] was 0 throughout.
On to `CCCCCCC(O)(c1ccc(F)cc1)C(CN1CCOCC1)c1ccccc1.Cl` (configuration not stated), for which the Toxicity in the assay on Schistosoma mansoni [1], in the assay with Schistosoma mansoni [2] and in the assay on Schistosoma mansoni [3] was 0 each time.
As to `Cc1ccccc1OCCSc1nc2ccc(NC(=O)c3ccccc3)cc2s1`, the Toxicity in the assay with Schistosoma mansoni [1], with Schistosoma mansoni [2] and in the assay with Schistosoma mansoni [3] was 0 in each case.
As to `CC(=O)NCCc1nc2ccccc2n1Cc1ccc(C(C)C)cc1`, the Toxicity with Schistosoma mansoni [1], in the assay with Schistosoma mansoni [2] and with Schistosoma mansoni [3] was 0 each time.
Take `CCOc1ccc(-c2nc(NC(=O)c3cccc(S(C)(=O)=O)c3)sc2C)cc1`: the Toxicity in the assay on Schistosoma mansoni [1], with Schistosoma mansoni [2] and in the assay with Schistosoma mansoni [3] was 0 throughout.
For the compound `COc1cccc(NC(=O)[C@H](C(C)C)n2c(=O)[nH]c3ccccc3c2=O)c1`, the Toxicity in the assay with Schistosoma mansoni [1], in the assay with Schistosoma mansoni [2] and with Schistosoma mansoni [3] was 0 throughout.
In the case of `CCOc1ccc(Nc2ccnc3cc(Cl)ccc23)cc1`, the Toxicity with Schistosoma mansoni [1] stood at 2; with Schistosoma mansoni [2], 0; in the assay on Schistosoma mansoni [3] it was 0.
Take `CCCCCCn1c(=N)n(CC(O)COc2cccc(C)c2)c2ccccc21.Cl` (configuration not stated): the Toxicity with Schistosoma mansoni [1], in the assay with Schistosoma mansoni [2] and in the assay on Schistosoma mansoni [3] was 4 each time.
As to `Cl.c1ccc2c(NCCCCCCNc3c4c(nc5ccccc35)CCCC4)c3c(nc2c1)CCCC3`, the Toxicity in the assay with Schistosoma mansoni [1], in the assay with Schistosoma mansoni [2] and in the assay with Schistosoma mansoni [3] was 4 in each case.
As to `Cc1c(C)n(Cc2ccc(F)cc2)c2ccc(C(=O)NCc3ccco3)cc12`, the Toxicity is 1 with Schistosoma mansoni [1], 2 in the assay on Schistosoma mansoni [2] and 2 in the assay on Schistosoma mansoni [3].
With `COc1ccc(C(=O)Nc2ccc(Cl)cc2C(=O)Nc2ccncc2)cc1`, the Toxicity in the assay with Schistosoma mansoni [1], with Schistosoma mansoni [2] and in the assay on Schistosoma mansoni [3] was 0 in each case.
Turning to `CC(C)c1ccc(CNCC(O)c2ccccc2)cc1.Cl` (configuration not stated), the Toxicity in the assay on Schistosoma mansoni [1], in the assay on Schistosoma mansoni [2] and in the assay on Schistosoma mansoni [3] was 0 throughout.
Regarding `CCCCOC(=O)c1ccc(Nc2cc(C)nc3ccc(OC)cc23)cc1`, the Toxicity turned out to be 2 in the assay with Schistosoma mansoni [1], 0 in the assay with Schistosoma mansoni [2] and 4 in the assay with Schistosoma mansoni [3].
In the same order, the values of `Oc1ccc(C(=C(Cl)Cl)c2ccc(O)cc2)cc1` are 0, 0 and 0.
In the same order, the values of `CN(C)c1ccc(N2C(N)=NC(N)=NC2(C)C)cc1` are 0, 0 and 0.
As to `CCC(C)NCC(O)(c1ccc(Cl)cc1)c1ccc(Cl)cc1` (configuration not stated), the Toxicity is recorded as 1 with Schistosoma mansoni [1], 0 in the assay on Schistosoma mansoni [2] and 0 with Schistosoma mansoni [3].
`Cc1ccc(N2C3c4ccccc4N(S(=O)(=O)c4ccc(C)cc4)C2c2ccccc2N3S(=O)(=O)c2ccc(C)cc2)cc1`: the Toxicity with Schistosoma mansoni [1], in the assay with Schistosoma mansoni [2] and in the assay with Schistosoma mansoni [3] was 0 throughout.
In the case of `CN(C)c1ccc(-c2nc3cc(N)ccc3[nH]2)cc1`, the Toxicity in the assay on Schistosoma mansoni [1], in the assay with Schistosoma mansoni [2] and with Schistosoma mansoni [3] was 0 throughout.
Regarding `COc1cccc(NC(=O)Cn2c(C)c(C#N)c3ccccc32)c1`, the Toxicity in the assay on Schistosoma mansoni [1], in the assay on Schistosoma mansoni [2] and with Schistosoma mansoni [3] was 0 in each case.
As for `Cc1ccc2nc(C)cc(Nc3cccc(C(F)(F)F)c3)c2c1.Cl`, the Toxicity amounted to 2 in the assay with Schistosoma mansoni [1], 2 in the assay on Schistosoma mansoni [2] and 3 in the assay with Schistosoma mansoni [3].
In the case of `Fc1ccc2[nH]c3c(NCCCN4CCOCC4)ncnc3c2c1`, the Toxicity is recorded as 0 with Schistosoma mansoni [1], 0 in the assay with Schistosoma mansoni [2] and 1 in the assay with Schistosoma mansoni [3].
As for `COC(=O)c1ccc(C2C3=C(O)CC(c4ccc(F)cc4)CC3=Nc3ccccc3N2C(=O)c2ccccc2)cc1` (configuration not stated), the Toxicity in the assay with Schistosoma mansoni [1] is on record as 0; in the assay on Schistosoma mansoni [2], 2; with Schistosoma mansoni [3], 1.
The corresponding values for `OC(Cn1nnc2ccccc21)Cn1c2ccc(Br)cc2c2cc(Br)ccc21` (configuration not stated) are 0, 0 and 0.
The corresponding values for `Cc1[nH]c(-c2ccc(F)cc2)cc1C(=O)NC1CCN(Cc2ccccc2)CC1` are 0, 0 and 3.
In the case of `Oc1ccc(Cl)cc1CNc1nc2ccccc2[nH]1`, the Toxicity with Schistosoma mansoni [1], with Schistosoma mansoni [2] and in the assay on Schistosoma mansoni [3] was 0 throughout.
Regarding `O=C1c2ccc3c4c(ccc(c24)C(=O)N1CCCCO)C(=O)N(CCCCO)C3=O`, the results for the Toxicity with Schistosoma mansoni [1], with Schistosoma mansoni [2] and with Schistosoma mansoni [3] were 0, 0 and 4, respectively.
As for `COc1ccccc1N1CCN(C(CNS(=O)(=O)c2ccc(Cl)cc2)c2cccnc2)CC1` (configuration not stated), the Toxicity in the assay on Schistosoma mansoni [1], in the assay with Schistosoma mansoni [2] and in the assay on Schistosoma mansoni [3] was 0 each time.
Consider `COc1nc(Nc2ccc(C(C)C)cc2)nc(OC)n1`, for which the Toxicity in the assay with Schistosoma mansoni [1], in the assay on Schistosoma mansoni [2] and with Schistosoma mansoni [3] was 0 throughout.
For `CCOc1ccc(CN2CCN(CC(O)COc3ccc(OCC(O)CN4CCN(Cc5ccc(OCC)cc5)CC4)cc3)CC2)cc1` (configuration not stated), the Toxicity is reported as 3 with Schistosoma mansoni [1], 4 in the assay with Schistosoma mansoni [2] and 4 in the assay on Schistosoma mansoni [3].
As to `CCN(CC)c1ccc(NC(=O)c2cccs2)cc1`, the Toxicity in the assay with Schistosoma mansoni [1], with Schistosoma mansoni [2] and in the assay on Schistosoma mansoni [3] was 0 each time.
As to `Cc1ccc2cc3c(N)c4c(C)ccc(C)c4nc3nc2c1`, the Toxicity in the assay on Schistosoma mansoni [1], with Schistosoma mansoni [2] and with Schistosoma mansoni [3] was 0 each time.
As to `CCc1c(C)c(=N)c2ccccc2n1C.I`, the Toxicity in the assay with Schistosoma mansoni [1], in the assay with Schistosoma mansoni [2] and in the assay with Schistosoma mansoni [3] was 0 throughout.
